According to article PMC9236220 (ACS Chemical Biology, 2022):
Like-named read-outs stand apart in the source and are kept apart here.

Tests used:
MHV-nLuc = assay: microbe, parasite or virus in culture; assay type: cell-based, mouse hepatitis virus (MHV); settings: Murine coronavirus, read-out: MHV-nLuc replication IC50
WIV1-CoV-nLuc = assay type: cell-based, bat
SARS-CoV-2-nLuc = assay type: cell-based
SHC014-CoV-nLuc = assay type: cell-based, bat
[1] = test system: SARS-CoV-2 spike protein uptake, Caco-2 cells; assay type: cell-based
kinases = settings: cited from earlier work
[2] = test system: SARS-CoV-2 spike protein uptake, HEK293T-ACE2 cells; assay type: cell-based
[3] = test system: SARS-CoV-2 spike protein uptake, Calu-3 cells; assay type: cell-based
A549-ACE2 cells = settings: cited from earlier work
SARS-CoV-2 [4] = settings: cited from earlier work
Vero cells = settings: cited from earlier work
SARS-CoV-2 [5] = settings: cited from earlier work; remark: listed apart in the source

SMILES	IC50 (MHV-nLuc) [nM]	effect on WIV1-CoV replication (WIV1-CoV-nLuc)	inhibition of SARS-CoV-2-nLuc replication (SARS-CoV-2-nLuc)	effect on SHC014-CoV replication (SHC014-CoV-nLuc)	decrease in spike protein uptake [1] [%]	kinases inhibited at 1 μM (kinases)	decrease in spike protein uptake [2]	decrease in spike protein uptake [3] [%]	effect on cell viability of DBT cells (DBT cells)	cell toxicity (A549-ACE2 cells)	antiviral activity pIC50, SARS-CoV-2 in Vero cells (SARS-CoV-2 [4])	IC50 (SARS-CoV-2 [4]; read-out: antiviral activity IC50, SARS-CoV-2 in Vero cells) [nM]	cell toxicity (Vero cells)	inhibition of SARS-CoV-2 infection pIC50, A549-ACE2 cells (SARS-CoV-2 [5])	IC50 (SARS-CoV-2 [5]; read-out: inhibition of SARS-CoV-2 infection IC50, A549-ACE2 cells) [nM]
CC(=O)Nc1ccc2ccn(-c3cc(NC4CCC4)n4ncc(C#N)c4n3)c2c1 [Compound 17]	< 1000	–	–	–	–	–	–	–	–	–	–	–	–	–	–
CCC(=O)Nc1cc(Nc2cc(NC3CC3)n3ncc(C#N)c3n2)ccc1C [SGC-CK2-1]	210	dose-dependent decreases in viral replication	inhibition of viral replication was observed	dose-dependent decreases in viral replication	> 75	3	70–80%	> 75	–	–	–	–	–	–	–
O=C(O)c1ccc2c(c1)nc(Nc1cccc(Cl)c1)c1ccncc12 [silmitasertib]	630	–	–	–	–	–	–	–	no effect on cell viability	cell toxicity at micromolar doses	5.6	2500	cell toxicity at micromolar doses	< 5	> 10000
